Entries after “also recorded” stand apart in the source; their conditions may differ. Square brackets hold non-standard residues; d marks the D form. Ends that are not written are not given here.
Test system: R4A anti-dsDNA monoclonal antibody
Assay: ELISA binding of monoclonal antibody R4A to phage clones
Set-up: species or system mouse
Details: R4A selected phage, Table 2
Protocol: (§1) FIG. 1 is comprised of FIGS. 1A, 1B and 1C, and depicts the binding by Enzyme Linked ImmunoSorbent Assay of monoclonal antibodies R4A (FIG. 1A), 95 (FIG. 1B) and 52b3 (FIG. 1C) to phage clones. In each figure, the shaded columns are R4A-selected phage and unshaded columns are 52b3-selected phage.
(§2) Binding of antibodies to phage was determined by Enzyme-Linked ImmunoSorbent Assay (ELISA). Microtiter plates (Becton Dickinson, Lincoln Park, N.J.) were coated with 50 μl of antibody (1 μg/ml unless otherwise specified) in TBS (Tris/10 mM HCl pH 7.5, 150 mM NaCl) overnight at 4° C. Plates were washed 3 times with TBS/0.05% TWEEN® 20. Approximately 2.5×10^10 purified phage in 50 μl TBS were added to each well, incubated for 2 hours at 37° C., washed, and then were blocked with 150 μl of TBS/2% BSA for 1 hour at 37° C. Plates were incubated with 50 μl of a 1:4000 dilution in TBS of biotinylated sheep antibody to M13 phage (5′->3′, Inc., Boulder, Colo.) for 1 hour at 37° C. Plates were washed again and incubated with a 1:4000 dilution of […] streptavidin (Southern Biotech. Assoc. Inc., Birmingham, Ala.) and developed with Sigma-104 substrate tablets (Sigma Chemical Co.). Optical density was read at 405 nm.

In order of rising “Binding O.D. 405 nm” value:
1. V P V C D W E L N C (VPVCDWELNC; displayed on phage; peptide (1)..(10) randomly-selected sequence obtained by biopanning a decapeptide library with R4A) [φ7-26]  0.4
2. S T E H S E A D L W (STEHSEADLW; displayed on phage; peptide (1)..(10) randomly-selected sequence obtained by biopanning a decapeptide library with R4A) [φ1-2]  0.7
3. D W D Y G A L M W A (DWDYGALMWA; displayed on phage; peptide (1)..(10) randomly-selected sequence obtained by biopanning a decapeptide library with R4A) [φ7-3]  1.1
4. Y S D W D Y S E G L (YSDWDYSEGL; displayed on phage; peptide (1)..(10) randomly-selected sequence obtained by biopanning a decapeptide library with R4A) [φ1-10]  1.1
5. L Y F E D Y R C E L (LYFEDYRCEL; displayed on phage; peptide (1)..(10) randomly-selected sequence obtained by biopanning a decapeptide library with R4A) [φ7-6]  1.2
6. D W E Y S V W L S N (DWEYSVWLSN; not fully specified (N-terminus, C-terminus)) [φ1-3]  1.3
7. W C E A D Y G R C P (WCEADYGRCP; displayed on phage; peptide (1)..(10) randomly-selected sequence obtained by biopanning a decapeptide library with R4A) [φ7-21]  1.3
8. F S D C Y H S G C P [φ1-1]  1.5

Test system: 52b3 anti-dsDNA monoclonal antibody
Assay: ELISA binding of monoclonal antibody 52b3 to phage clones
Set-up: species or system mouse
Details: 52b3 selected phage, Table 3
Protocol: as §1, §2

In order of falling “Binding O.D. 405 nm” value:
1. S C Y Q S Y P G E C (SCYQSYPGEC; displayed on phage; peptide (1)..(10) randomly-selected sequence obtained by biopanning a decapeptide library with 52b3) [φB52]  1.8
2. V L I C W D G C E T (VLICWDGCET; displayed on phage; peptide (1)..(10) randomly-selected sequence obtained by biopanning a decapeptide library with 52b3) [φB17]  1.6
3. D G E W P R E G W S (DGEWPREGWS; displayed on phage; peptide (1)..(10) randomly-selected sequence obtained by biopanning a decapeptide library with 52b3) [φB56]  1.6
4. E D L E G E W P M R (EDLEGEWPMR; displayed on phage; peptide (1)..(10) randomly-selected sequence obtained by biopanning a decapeptide library with 52b3) [φB22]  1.5
5. L L D D G F W P R V (LLDDGFWPRV; displayed on phage; peptide (1)..(10) randomly-selected sequence obtained by biopanning a decapeptide library with 52b3) [φB25]  1.5
6. C G V D G R W P R W (CGVDGRWPRW; displayed on phage; peptide (1)..(10) randomly-selected sequence obtained by biopanning a decapeptide library with 52b3) [φB23]  1.5
7. S L D E L D W D S M (SLDELDWDSM; displayed on phage; peptide (1)..(10) randomly-selected sequence obtained by biopanning a decapeptide library with 52b3) [φB1]  1.4
8. R H E D G D W P R V (RHEDGDWPRV; not fully specified (N-terminus, C-terminus)) [φB11]  1.4
9. S L I S D E W P R W (SLISDEWPRW; displayed on phage; peptide (1)..(10) randomly-selected sequence obtained by biopanning a decapeptide library with 52b3) [φB24]  1.3
10. W D C Y V C R L E L (WDCYVCRLEL; displayed on phage; peptide (1)..(10) randomly-selected sequence obtained by biopanning a decapeptide library with 52b3) [φB21]  1.2
11. T W C P V W I W D C (TWCPVWIWDC; displayed on phage; peptide (1)..(10) randomly-selected sequence obtained by biopanning a decapeptide library with 52b3) [φB16]  1.0

Test system: R4A binding to dsDNA
Assay: Peptide inhibition of R4A binding to dsDNA by ELISA
Set-up: species or system mouse
Details: fluid phase inhibitor, FIG. 3, FIG. 4
Protocol: FIG. 3 depicts peptide inhibition of R4A (1 μg/ml) binding to calf thymus double stranded DNA by Enzyme Linked ImmunoSorbent Assay.
FIG. 4 sets forth a graph representing DWEYS (L and D peptides) (SEQ ID NO:2) inhibition of R4A binding to dsDNA. IMMULON® II plates were coated overnight with 100 μg/ml salmon sperm dsDNA. R4A at a final concentration of 5 μg/ml was incubated at varying concentrations of L or D DWEYS (SEQ ID NO:2) and transferred to the plate precoated with dsDNA. After a 2-hr incubation at 37° C., the plates were washed, and alkaline phosphotase-linked goat anti-mouse IgG2b antibody was added for 1 hour at 37° C. OD after addition of substrate was monitored at 405 nm.

For “DWEYS [L peptide DWEYS, R4A-specific L peptide DWEYS]”, the “Inhibition of R4A binding to dsDNA” value was “showed greater maximal inhibition; also recorded: inhibited the binding of R4A to dsDNA; also recorded: inhibited dsDNA better than the D peptide in vitro”.
With DWEYSVWLSN [R4A specific peptide] the “Inhibition of R4A binding to dsDNA” value was “inhibited dsDNA binding by the appropriate antibody only”.
In the case of “DWEYS [D peptide DWEYS] (Ac-[dD][dW][dE][dY][dS]-NH2; SMILES CC(=O)N[C@H](CC(=O)O)C(=O)N[C@H](Cc1c[nH]c2ccccc12)C(=O)N[C@H](CCC(=O)O)C(=O)N[C@H](Cc1ccc(O)cc1)C(=O)N[C@H](CO)C(N)=O) [R4A-specific peptide DWEYS made from D amino acids]”, the “Inhibition of R4A binding to dsDNA” value is reported as “inhibited the binding of R4A to dsDNA”.

Test system: 52b3 binding to dsDNA
Assay: Peptide inhibition of 52b3 binding to dsDNA by ELISA
Set-up: species or system mouse
Details: fluid phase peptide, FIG. 3
Protocol: To determine whether peptide and dsDNA bound within the same antigen binding site of each antibody, inhibition assays were performed with specific peptides. […] These were used in fluid phase to inhibit the binding of antibody to dsDNA. Two peptides, Asp-Trp-Glu-Tyr-Ser-Val-Trp-Leu-Ser-Asn (SEQ ID NO:1) and Asp-Trp-Glu-Tyr-Ser (SEQ ID NO:2), were chosen as the R4A specific epitope; the 52b3 specific peptide was Arg-His-Glu-Asp-Gly-Asp-Trp-Pro-Arg-Val (SEQ ID NO:7).

RHEDGDWPRV [52b3 specific peptide] was tested, and the “Inhibition of 52b3 binding to dsDNA” value was “inhibited dsDNA binding by the appropriate antibody only”.

Test system: R4A deposition in glomeruli
Assay: Assay of anti-dsDNA antibody (R4A) glomerular deposition in SCID mice
Format: in vivo
Details: 75 μg R4A and 150 μg peptide i.p., IgG immunostaining, FIG. 5
Protocol: FIG. 5 sets forth kidney sections exemplifying peptide inhibition of R4A deposition in glomeruli. R4A (75 μg) and peptide (150 μg) were injected i.p. into SCID mice. Mice were killed 16 hours later, and the kidneys immunostained for IgG deposition. […] FIG. 5B sets forth a representative section from a mouse injected with R4A, and the R4A- specific D peptide DWEYS (SEQ ID NO:2).
Glomerular deposition of the nephritogenic R4A antibody was examined by injecting purified antibody into SCID mice. R4A was obtained from cell culture supernatants or from ascites of mice injected with the cell line. Antibody was purified on a protein G column (Gamma Bind, Pharmacia). SCID mice were obtained from the breeding colony maintained at the Albert Einstein College of Medicine. Six- to eight-week old female mice were used in the experiments. Anti-dsDNA antibodies and IgG2b levels were undetectable in these mice before injection. Individual mice were simultaneously injected i.p. with 75 μg of purified R4A and 150 μg of the appropriate peptide. The mice were killed 16 hours after the injection of antibody.
One kidney from each animal was fixed in 10% formalin and embedded in paraffin. […]

With “DWEYS [L peptide DWEYS, R4A-specific L peptide DWEYS]” the “Inhibition of R4A deposition in glomeruli / kidney” value was “More anti-dsDNA antibody is present in glomeruli; also recorded: did not”.
“DWEYS [D peptide DWEYS] (Ac-[dD][dW][dE][dY][dS]-NH2; SMILES CC(=O)N[C@H](CC(=O)O)C(=O)N[C@H](Cc1c[nH]c2ccccc12)C(=O)N[C@H](CCC(=O)O)C(=O)N[C@H](Cc1ccc(O)cc1)C(=O)N[C@H](CO)C(N)=O) [R4A-specific peptide DWEYS made from D amino acids]” was tested, and the “Inhibition of R4A deposition in glomeruli / kidney” value was “markedly inhibited the deposition of R4A in the kidney; also recorded: only the D peptide conferred renal protection in vivo”.

Molecular target: phage clone φ3-3, no insert (UniProt P03661)
Assay: phage ELISA, antibody coated, no-insert control phage added, anti-M13 detection
Details: not given

Sequence of UniProt P03661 (P03661 19-424 limits assumed): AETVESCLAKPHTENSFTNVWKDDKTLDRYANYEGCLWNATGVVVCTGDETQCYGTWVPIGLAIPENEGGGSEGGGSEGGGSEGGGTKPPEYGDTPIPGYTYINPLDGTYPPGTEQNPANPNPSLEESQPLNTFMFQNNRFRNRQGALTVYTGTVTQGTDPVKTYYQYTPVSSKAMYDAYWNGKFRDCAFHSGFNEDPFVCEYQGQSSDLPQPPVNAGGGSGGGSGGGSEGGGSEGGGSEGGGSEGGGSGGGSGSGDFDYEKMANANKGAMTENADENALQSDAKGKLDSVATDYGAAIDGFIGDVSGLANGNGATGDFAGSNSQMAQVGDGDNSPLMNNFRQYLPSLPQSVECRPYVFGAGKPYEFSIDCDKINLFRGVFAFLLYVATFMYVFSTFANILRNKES

For “monoclonal antibody R4A (mouse anti-dsDNA antibody)”, the Binding O.D. 405 nm was 0.1 O.D. 405 nm.
